From US10143747B2, “Breast cancer therapeutics” (IMBA—INSTITUT FÜR MOLEKULARE BIOTECHNOLOGIE GMBH, priority 2010, dated 2018)

Test system: mammary epithelial cells
Experiment: γ-irradiation induced mammary epithelial cell apoptosis in vivo (active Caspase 3)
Parameters: species or system mouse
Settings: MPA pellet, 5 Gray
Description: a, Western blotting for phosphorylated (P) IKKα, total IKKα, phosphorylated (P) p65 NFκB, total p65 NFκB, phosphorylated (P) IκBα, and total IκBα in isolated primary mouse mammary gland epithelial cells (MECs) in response to RANKL stimulation (1 μg/ml). β-actin is shown as loading control. b, Western blotting for IKKα, IKKβ, IKKγ, phosphorylated (P) p65 NFκB, total p65 NFκB, phosphorylated (P) IκBα, and total IκBα in pooled late stage mammary adenocarconimas (n=4 for each lane) that developed in control, RANK^Δmam and IKKΔ^Δmam females. β-actin is shown as loading control c, Expression of RANK, CyclinD1, and p21 mRNA in late stage mammary adenocacinomas that developed in control, RANK^Δmam, and IKKα^Δmam females. Expression was determined by qRT-PCR. […] Apoptosis was detected by immunostaining for active Caspase 3. f, Apoptotic nuclei of epithelial cells (arrows) are shown for representative mammary gland sections. Magnifications×40. g, Quantification of mammary epithelial apoptosis. A minimum of 5000 nuclei was counted for each mouse. […]
For measurement of cell cycle arrest and apoptosis primary mouse mammary epithelial cells and SKBR3 human breast cancer cells were seeded at a cell-density of 100000 cells/well in a 6-well plate and allowed to grow for 24 hours. […] Cell cycle arrest and numbers of dead cells were determined using propidium iodine staining. […]

Question: CC(=O)O[C@]1(C(C)=O)CC[C@H]2[C@@H]3C[C@H](C)C4=CC(=O)CC[C@]4(C)[C@H]3CC[C@@]21C [MPA, medroxyprogesterone acetate] was tested. Which “protective effect of MPA on γ-irradiation-induced cell death” value (RANKΔmam females) did it give?
Answer: abrogated the protective effects of MPA

Question: And the “γ-irradiation-induced apoptosis of mammary epithelial cells in vivo” value (control females)?
Answer: protected from γ-irradiation-induced apoptosis
